Assays:
[1] = target: T1, AChE from Electrophorus electricus (Electrophorus electricus, UniProt O42275); assay: biochemical; settings: for IC50: Ellman's method, read-out: IC50 in the AChEI assay
T1 construct: purchased Sigma (St. Louis, MO, USA)
Experimental: AChEI activity was measured using Ellman’s method. AChE hydrolyzes the substrate ACTI into acetate and thiocholine. In a neutral and alkaline medium; thiocholine reacts with DTNB to give yellow colored 2-nitro-5-thiobenzoate, which can be detected spectrophotometrically at 405 nm. Briefly, in a 96-well plate, 25 µL of 15 mM ACTI, 125 µL of 3 mM DTNB in buffer B (50 mM Tris HCl, pH = 8, 0.1 M NaCl, 0.02 M MgCl2·6H2O), 50 µL of buffer A (50 mM Tris-HCl, PH 8, 0.1% BSA) and 25 µL of tested sample (dissolved in 25% DMSO) were mixed, and the absorbance was measured using a microplate reader (Biotek, Winooski, VT, USA) at 405 nm every 16 s ten times. Then, 25 µL of AChE (0.25 U/mL in buffer A) was added and the absorbance was measured ten times every 16 s. A solution of 25% DMSO was used as a negative control. Absorbance was plotted against time and enzyme activity was calculated from the slope of the line so obtained and expressed as a percentage compared to an assay using a buffer without any inhibitor. Fractions were tested at 400 µg/mL. To avoid any increase in absorbance due to the color of the compounds or spontaneous hydrolysis of the substrate, the absorbance before addition of the enzyme was subtracted from the absorbance after adding the enzyme.
IC50 values of isolated compounds in AChEI and scavenging of hydroxyl radical assays were calculated using Probit Analysis (SPSS Version 16.0 for Windows, SPSS Inc., Chicago, IL, USA) for five different concentrations in three independent experiments. Cell viability was expressed as a percentage of MTT reduction, assuming that the viability of cells treated with 1% DMSO as a negative control was 100%. Figures were built in Microsoft Excel 2010. All values are the mean ± SD of three independent experiments. Data were analyzed for statistical significance using one-way ANOVA, followed by Dunnet’s test as a post-hoc test with GraphPad Prism 5.0 software for Windows (Inc., San Diego, CA, USA).

[2] = tested on: intracellular ROS in Neuro-2A cells; assay: Scavenging of intracellular reactive oxygen species (Bes-H2O2-AC, DFF fluorescence); type: cell-based, Mouse; settings: for decrease of DFF fluorescence intensity (intracellular ROS): only at the higher concentration of 100 µM, H2O2 600 µM 30 min; for Intracellular ROS Scavenging: summary Table 4; on Intracellular ROS Scavenging: key: +: Weak activity; ++: Strong activity
Experimental: (§1) Neuro-2A cell line was maintained in Eagle’s Minimum Essential medium supplemented with 10% fetal bovine serum, 1% of 100× antibiotic—antimitotic agents (containing penicillin and streptomycin) in a humid atmosphere of 5% (v/v) CO2 and 95% (v/v) air at 37 °C. Neuro-2A cells were plated in 96-well cell culture plates at a density of 3 × 10^4 cells/well for H2O2 and intracellular ROS assays and 2.5 × 10^3 cells/well for the Aβ25-35-assay.
This assay was performed as previously described with some modifications. Briefly, Neuro-2A cells were seeded in 96-well Clear Fluorescence Black Plate (number 655090, Greiner Bio-one, Tokyo, Japan). Cells were treated with three different concentrations (25, 50, 100 µM) of the samples. After 2 h incubation, cells were subjected to oxidative stress using 600 µM of H2O2 for 30 min. The nucleus was stained by Hoechst 33342 (Dojindo, Kumamoto, Japan), and the amount of difluorofluorescein (DFF) released from the reaction of H2O2 and BES-H2O2-Ac was taken as an indication of the amount of intracellular H2O2 and ROS. Images of each well were acquired using an IN Cell Analyzer 1000 (GE Healthcare, Buckinghamshire, UK) using 360-nm (Hoechst 33342) and 480-nm (BES-H2O2-Ac) excitation filters and monitored through 460-nm and 535-nm emission filters, respectively. Developer software was used to analyze the images of Hoechst 33342 and BES-H2O2-Ac staining, and the resulting data were then applied to Spotfire Decision Site Client 8.2 software for visualizing the results.

neuro-2A cells = assay: Protection against Aβ25-35-induced neurotoxicity (MTT); type: cell-based, Mouse; settings: for Protection against Aβ25-35: summary Table 4; for neuroprotection against Aβ25-35 (in words): at the highest concentration (100 µM); on Protection against Aβ25-35: key: +: Weak activity; ++: Strong activity
Experimental: as §1
Cell viability was determined by MTT reduction assay. Briefly, after treatment with isolated compounds, the media was replaced by fresh one after washing the cells with 100 µL PBS and 20 µL of MTT (5 mg/mL) was added to each well. After 4 h incubation at 37 °C, the state of cells was checked under microscope to confirm either cytotoxicity in H2O2 and Aβ25-35 wells or protection in positive controls and isolated compounds ones. The supernatants were aspirated carefully, and 150 µL of DMSO was added to each well to dissolve the dark blue formazan crystals. The absorbance was measured using a microplate reader at 570 nm.
Similarly, the concentration of Aβ25-35 that decreased cell viability to about 50% was determined. […] So, the cells were incubated with different concentrations of the isolated compounds (6.25, 12.5, 25, 50 and 100 µM) and EGCG as a positive control for 3 h followed by Aβ25-35 treatment for 72 h.

Aβ25-35 = target: T2, Aβ25-35 (Homo sapiens, UniProt P05067); assay: Thioflavin T assay of Aβ25-35 aggregation; type: biochemical; settings: for effect on Th-T fluorescence (in words): 25-100 µM; for Decrease of ThT Fluorescence: summary Table 4; on Decrease of ThT Fluorescence: key: +: Weak activity; ++: Strong activity
T2 construct: Aβ25-35 (25 µM) freshly prepared in PBS; purchased Sigma (St. Louis, MO, USA)
Experimental: Thioflavin T (ThT), abenzothiazole salt, is used to quantify misfolded protein aggregates and amyloid peptides. ThT is a non-fluorescent dye which, when it binds to amyloid rich aggregates, produces a fluorescent signal proportional to the quantity of amyloid aggregation. Aβ25-35 (25 µM) freshly prepared in PBS (50 mM, pH = 7.4) was incubated at 37 °C with or without different concentrations (100, 50, 25 µM) of isolated compounds at 37 °C and shaken at 300 rpm for 3 h. One hundred µL of each incubated sample was transferred to a 96-well plate, and five µM ThT was added. The ThT fluorescence was measured over 180 min at 10-min intervals at emission λ at 485 nm; and excitation λ at 442 nm using FlexStation 3 Microplate Reader (Molecular Devices, LLC, Sunnyvale, CA, USA), and data were managed by SoftMax Pro® 5.4.1 software. The samples were constantly shaken every 60 sec during the incubation. 1% DMSO and different concentrations of ECCG were taken as negative and positive controls, respectively. The area under the curve (AUC) was taken as indicative of fluorescence intensity. Fluorescence of samples and ThT without Aβ25-35 (sample blank) was detected and subtracted from the final AUC to prevent any interference.

T1 sequence (O42275 24-633): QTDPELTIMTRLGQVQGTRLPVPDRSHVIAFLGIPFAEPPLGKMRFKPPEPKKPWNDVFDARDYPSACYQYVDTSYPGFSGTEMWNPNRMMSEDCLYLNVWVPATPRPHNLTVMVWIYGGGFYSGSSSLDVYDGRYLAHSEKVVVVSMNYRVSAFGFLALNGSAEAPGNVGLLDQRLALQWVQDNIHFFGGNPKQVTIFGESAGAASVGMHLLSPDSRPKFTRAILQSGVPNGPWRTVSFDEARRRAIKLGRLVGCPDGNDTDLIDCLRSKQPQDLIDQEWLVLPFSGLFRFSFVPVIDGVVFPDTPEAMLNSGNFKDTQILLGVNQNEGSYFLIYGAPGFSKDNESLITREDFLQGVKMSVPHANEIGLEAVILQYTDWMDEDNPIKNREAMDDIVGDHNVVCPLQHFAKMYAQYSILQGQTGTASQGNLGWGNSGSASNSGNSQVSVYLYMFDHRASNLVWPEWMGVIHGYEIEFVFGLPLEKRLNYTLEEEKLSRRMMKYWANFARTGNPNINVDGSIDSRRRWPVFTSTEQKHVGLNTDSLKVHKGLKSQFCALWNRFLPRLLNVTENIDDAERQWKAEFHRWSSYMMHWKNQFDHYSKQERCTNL

Row | Structure (SMILES) | IC50 [1] [µM] | decrease of DFF fluorescence intensity (intracellular ROS) [2] | Intracellular ROS Scavenging [2] | Protection against Aβ25-35 (neuro-2A cells) | effect on Th-T fluorescence (in words) (Aβ25-35) | Decrease of ThT Fluorescence (Aβ25-35) | inhibition at 250 µM ([1]; at 250 µM) [%] | neuroprotection against Aβ25-35 (in words) (neuro-2A cells)
1 | CC(=O)OC1c2c(ccc3ccc(=O)oc23)OC(C)(C)C1OC(=O)C(C)(O)C(C)O (stereo not shown) [Hyuganin E (6), hyuganin E] | 286.5 ± 2.1 | decrease the fluorescence intensity | + | ++ | decreased Th-T fluorescence in a dose-dependent manner | ++ |  | 
2 | O=c1c(O)c(-c2ccc(O)cc2)oc2cc(O)cc(O)c12 [Kaempferol (8), kaempferol] |  | decrease the fluorescence intensity | + | + | weak activity | + | 30 | significant neuroprotection (p < 0.05)
3 | O=c1c(OC2OC(CO)C(O)C(O)C2O)c(-c2ccc(O)cc2)oc2cc(O)cc(O)c12 (stereo not shown) [Kaempferol-3-O-glucoside (13), kaempferol-3-O-glucoside] | 80.4 ± 5.1 |  | + | + | weak activity | + |  | significant neuroprotection (p < 0.05)
